Here are results for 40 compounds from patent publication US9238039B2, “Pyrazolo[1,5-A]pyrimidines for antiviral treatment” (Gilead Sciences, Inc., priority 2010, dated 2016).

The assay concerns RSV strain A2. Briefly: RSV antiviral cytoprotection assay in Hep2 cells (96-well and 384-well format, Cell TiterGlo read-out). The following applies: human respiratory syncytial virus; for inhibition at 0.5 µM: HEp-2, 0.5 uM; for inhibition at 0.5 µM / inhibition at 1 µM: RSV-induced cytopathic effect in Hep2 cells, calculated from fitted dose response curve, normalized to 0% and 100%; for EC50: HEp-2, RSV-induced cytopathic effects, Hep2 cells, class symbols; for inhibition at 1 µM: HEp-2, 1 uM. It is filed as cell-based, Respiratory Syncytial Virus (RSV).

As to `CS(=O)(=O)Nc1ccc(Cl)cc1C(=O)N1CCCC[C@H]1c1cc2nc(N3CC(F)C3)cc(N3CCOCC3)n2n1` [Compound 72], the inhibition – broadly, the drop in the measured response relative to a control, in per cent – at 0.5 µM is 98% and the EC50 (in general, the concentration that produces a half-maximal response) is 0.1 to 100 nM.
In the case of `Cc1cn2nc([C@@H]3CCCCN3C(=O)c3ccccc3C(F)(F)F)cc2nc1N1CC[C@H](N)C1` [Compound 387], the inhibition at 0.5 µM is 77% and the EC50 is 101 to 1000 nM.
On the same counts, the results for `Cc1ccc(C(=O)N2CCCC[C@H]2c2cc3nc(N4CC[C@H](N)C4)c(C)cn3n2)cc1O` [Compound 294] are 14% and 1000 to 10000 nM.
As for `CS(=O)(=O)Nc1ccc(Cl)cc1C(=O)N1CCCC[C@H]1c1cc2nc(N3CC(O)C3)cc(N3CC(N)C3)n2n1` [Compound 130], the inhibition at 0.5 µM is 100% and the EC50 fell in the range of 0.1 to 100 nM.
`Cc1cc(C)n2ncc(C(=O)N3CCCC[C@H]3c3cc4nc(N5CC[C@H](N)C5)c(C)cn4n3)c2n1` [Compound 394]: the inhibition at 0.5 µM was 100% and the concentration giving a half-maximal response (EC50) lay within 0.1 to 100 nM.
For `Cc1ccc(NS(C)(=O)=O)c(C(=O)N2CCCC[C@H]2c2cc3nc(N4CCC4)c(C)cn3n2)c1` [Compound 189], in that order: 100% and 0.1 to 100 nM.
In the case of `Cc1cc(C2CC2)nc2cc([C@@H]3CCCCN3C(=O)C(NC(=O)OC(C)(C)C)c3cccc(Cl)c3)nn12` (stereo partly shown) [Compound 238], the inhibition at 0.5 µM is 100% and the EC50 lay within 101 to 1000 nM.
`CNc1ccccc1C(=O)N1CCCC[C@H]1c1cc2[nH]c(C)c(C)c(=O)n2n1` [Compound 7]: the inhibition at 0.5 µM was 93%, the inhibition at 1 µM is 98% and the half-maximal effective concentration (EC50) fell in the range of 0.1 to 100 nM.
For the compound `CS(=O)(=O)Nc1ccc(Cl)cc1C(=O)N1CCCC[C@H]1c1cc2nc(N3CCC3)cc(N3CC(N)C3)n2n1` [Compound 133], the inhibition at 0.5 µM is 96% and the EC50 lay in the range of 0.1 to 100 nM.
In the case of `Cc1cn2nc([C@@H]3CCCCN3C(=O)c3cc(Cl)ccc3NS(C)(=O)=O)cc2nc1N1CC[C@H](N)C1` [Compound 202], the inhibition at 0.5 µM was 100% and the EC50 lay in the range of 0.1 to 100 nM.
Take `Cc1[nH]c2cc([C@@H]3CCCCN3C(=O)c3ccccc3NC(=O)OC(C)(C)C)nn2c(=O)c1C` [Compound 2]: the inhibition at 0.5 µM is 36%, the inhibition at 1 µM was 46% and the EC50 is 101 to 1000 nM.
Consider `Cc1ccc(NS(C)(=O)=O)c(C(=O)N2CCCC[C@H]2c2cc3nc(N4CC[C@@H](C#N)C4)c(C)cn3n2)c1` [Compound 188], for which the inhibition at 0.5 µM was 100% and the EC50 fell in the range of 0.1 to 100 nM.
With `CS(=O)(=O)Nc1ccc(Cl)cc1C(=O)N1CCCC[C@H]1c1cc2nc(N3CC(N)C3)ccn2n1` [Compound 53], the inhibition at 0.5 µM was 98% and the EC50 lay within 0.1 to 100 nM.
For `Cc1[nH]c2cc([C@@H]3CCCCN3C(=O)c3ccccc3NC(=O)C3CC3)nn2c(=O)c1C` [Compound 14], the inhibition at 0.5 µM is 96%, the inhibition at 1 µM was 98% and the concentration for a half-maximal effect (EC50) lay within 0.1 to 100 nM.
Take `Cc1cn2nc([C@@H]3CCCCN3C(=O)c3cccc(-c4cccnc4)c3)cc2nc1N1CC[C@H](N)C1` [Compound 411]: the inhibition at 0.5 µM is 95% and the EC50 was 101 to 1000 nM.
As for `CS(=O)(=O)Nc1ccc(Cl)cc1C(=O)N1CCCC[C@H]1c1cc2nc(N3CCC3)cc(N3CCCNCC3)n2n1` [Compound 156], the inhibition at 0.5 µM was 100% and the concentration giving a half-maximal response (EC50) fell in the range of 0.1 to 100 nM.
Consider `Cc1ccc(C)c(C(=O)N2CCCC[C@H]2c2cc3nc(N4CC[C@H](N)C4)c(C)cn3n2)c1` [Compound 161], for which the inhibition at 0.5 µM is 100% and the EC50 lay in the range of 0.1 to 100 nM.
Regarding `Cc1cn2nc([C@@H]3CCCCN3C(=O)c3csnn3)cc2nc1N1CC[C@H](N)C1` [Compound 271], the inhibition at 0.5 µM is 97% and the EC50 was in the range of 0.1 to 100 nM.
On the same counts, the results for `Cc1cn2nc([C@@H]3CCCCN3C(=O)c3cc(O)ccc3Cl)cc2nc1N1CC[C@H](N)C1` [Compound 339] are 99% and 0.1 to 100 nM.
Regarding `Cc1cn2nc([C@@H]3CCCCN3C(=O)c3ccc(C#N)cn3)cc2nc1N1CC[C@H](N)C1` [Compound 290], the half-maximal effective concentration (EC50) is 0.1 to 100 nM.
As for `Cc1cc(C(=O)N2CCCC[C@H]2c2cc3nc(N4CC[C@H](N)C4)c(C)cn3n2)c2cnn(C)c2n1` [Compound 393], the inhibition at 0.5 µM is 99% and the half-maximal effective concentration (EC50) is 0.1 to 100 nM.
Turning to `CC(=O)Nc1c(C)c(C)nc2cc([C@@H]3CCCCN3C(=O)c3cc(C)ccc3NS(C)(=O)=O)nn12` [Compound 88], the inhibition at 0.5 µM was 98% and the EC50 is 0.1 to 100 nM.
Consider `Cc1cn2nc([C@@H]3CCCCN3C(=O)c3cc(Cl)ccc3NS(C)(=O)=O)cc2nc1N1CCC(C)(C#N)C1` (stereo partly shown) [Compound 205], for which the inhibition at 0.5 µM is 91% and the EC50 was in the range of 0.1 to 100 nM.
On to `Cc1cn2nc([C@@H]3CCCCN3C(=O)c3cc(Cl)cnc3O)cc2nc1N1CC[C@H](N)C1` [Compound 345], for which the inhibition at 0.5 µM was 100% and the 50% effective concentration (EC50) fell in the range of 0.1 to 100 nM.
For `Cc1cn2nc([C@@H]3CCCCN3C(=O)c3ccc(Cl)c(Cl)c3)cc2nc1N1CC[C@H](N)C1` [Compound 392], in that order: 95% and 0.1 to 100 nM.
For the compound `Cc1cn2nc([C@@H]3CCCCN3C(=O)c3cc(Cl)ccc3NS(C)(=O)=O)cc2nc1N1CC(N)C(F)C1` (stereo partly shown) [Compound 250], the inhibition at 0.5 µM is 90% and the EC50 fell in the range of 0.1 to 100 nM.
`Cc1cn2nc([C@@H]3CCCCN3C(=O)c3ccc(F)c(F)c3O)cc2nc1N1CC[C@H](N)C1` [Compound 346]: the inhibition at 0.5 µM was 100% and the EC50 was 0.1 to 100 nM.
Consider `Cc1cc(C2CC2)nc2cc([C@@H]3CCCCN3C(=O)c3cc(F)c(F)cc3NS(C)(=O)=O)nn12` [Compound 117], for which the inhibition at 0.5 µM is 99% and the EC50 was in the range of 0.1 to 100 nM.
As for `Cc1cn2nc([C@@H]3CCCCN3C(=O)c3ccc4c(c3)nnn4C)cc2nc1N1CC[C@H](N)C1` [Compound 359], the inhibition at 0.5 µM was 100% and the EC50 is 0.1 to 100 nM.
For the compound `Cc1cn2nc([C@@H]3CCCCN3C(=O)c3cc(C)n(C)n3)cc2nc1N1CC[C@H](N)C1` [Compound 280], the inhibition at 0.5 µM was 60% and the EC50 was in the range of 101 to 1000 nM.
For `Cc1cccc(NS(C)(=O)=O)c1C(=O)N1CCCC[C@H]1c1cc2[nH]c(C)c(C)c(=O)n2n1` [Compound 32], the inhibition at 0.5 µM was 99% and the EC50 fell in the range of 0.1 to 100 nM.
On the same counts, the results for `Cc1cn2nc(C3CCCCCN3C(=O)c3cc(Cl)ccc3NS(C)(=O)=O)cc2nc1N1CC(O)C1` (stereo not shown) [Compound 174] are 100% and 0.1 to 100 nM.
Consider `Cc1cn2nc([C@@H]3CCCCN3C(=O)c3cc(Cl)ccc3NS(C)(=O)=O)cc2nc1N1CC(CO)C1` [Compound 213], for which the inhibition at 0.5 µM is 99% and the EC50 lay within 0.1 to 100 nM.
In the case of `CS(=O)(=O)Nc1ccc(Cl)cc1C(=O)N1CCCC[C@H]1c1cc2nc(N3CCC3)cc(N3CCOC3)n2n1` [Compound 74], the inhibition at 0.5 µM was 100% and the EC50 lay within 0.1 to 100 nM.
Consider `CN1CCN(c2cc(N3CCC3)nc3cc([C@@H]4CCCCN4C(=O)c4cc(Cl)ccc4NS(C)(=O)=O)nn23)CC1` [Compound 165], for which the inhibition at 0.5 µM is 100% and the EC50 fell in the range of 0.1 to 100 nM.
Consider `CN(C)CCN(C)c1cc(N2CCC2)nc2cc([C@@H]3CCCCN3C(=O)c3cc(Cl)ccc3NS(C)(=O)=O)nn12` [Compound 175], for which the inhibition at 0.5 µM is 100% and the EC50 lay in the range of 0.1 to 100 nM.
On to `Cc1cn2nc([C@@H]3CCCCN3C(=O)c3cnc(Cl)cn3)cc2nc1N1CC[C@H](N)C1` [Compound 309], for which the inhibition at 0.5 µM is 100% and the EC50 was 0.1 to 100 nM.
Take `Cc1cn2nc([C@@H]3CCCCN3C(=O)c3cc(CC(C)C)nn3C)cc2nc1N1CC[C@H](N)C1` [Compound 368]: the inhibition at 0.5 µM is 58% and the 50% effective concentration (EC50) lay in the range of 101 to 1000 nM.
As for `Cc1cn2nc([C@@H]3CCCCN3C(=O)c3cc(Cl)ccc3NS(C)(=O)=O)cc2nc1N1CCC[C@H]1CN1CCCC1` [Compound 206], the inhibition at 0.5 µM was 99% and the half-maximal effective concentration (EC50) lay in the range of 0.1 to 100 nM.
`CN(C)[C@H]1CCN(c2cc(N3CCC3)nc3cc([C@@H]4CCCCN4C(=O)c4cc(Cl)ccc4NS(C)(=O)=O)nn23)C1` [Compound 76]: the inhibition at 0.5 µM was 100% and the EC50 is 0.1 to 100 nM.
